Patent publication US7517532B2, “Dihydroxypyridopyrazine-1,6-dione compounds useful as HIV integrase inhibitors” (Merck & Co., Inc., priority 2002, dated 2009)

Test system: HIV
Test: Assay for inhibition of HIV replication (acute HIV infection of T-lymphoid cells)
Type: cell-based
Conditions: Human immunodeficiency virus 1, T-lymphoid
Experimental: Assay for Inhibition of HIV Replication
Assays for the inhibition of acute HIV infection of T-lymphoid cells were conducted in accordance with Vacca, J. P. et al., Proc. Natl. Acad. Sci. USA 1994, 91: 4096.

CCOC[C@@H]1[C@@H]2[C@H]1n1c(c(O)c(O)cc1=O)C(=O)N2Cc1ccc(F)cc1 (racemic) [Example 42, (±)-1-(Ethoxymethyl)-2-(4-fluorobenzyl)-4,5-dihydroxy-1,1a,2,8a-tetrahydrocyclo-propa[e]pyrido[1,2-a]pyrazine-3,7-dione]
IC95: < 1000 nM

CCCOC[C@@H]1[C@@H]2[C@H]1n1c(c(O)c(O)cc1=O)C(=O)N2Cc1ccc(F)cc1 (racemic) [Example 43, (±)-1-(n-Propoxymethyl)-2-(4-fluorobenzyl)-4,5-dihydroxy-1,1a,2,8a-tetrahydrocyclo-propa[e]pyrido[1,2-a]pyrazine-3,7-dione]
IC95: < 1000 nM

O=C1c2c(O)c(O)cc(=O)n2CCN1Cc1ccccc1 [Example 1, 2-Benzyl-8,9-dihydroxy-3,4-dihydro-2H-pyrido[1,2-a]pyrazine-1,6-dione]
IC95: < 5000 nM

Cc1c(O)c(O)c2n(c1=O)CCN(Cc1ccc(F)cc1)C2=O [Example 3, 2-(4-Fluorobenzyl)-8,9-dihydroxy-7-methyl-3,4-dihydro-2H-pyrido[1,2-a]pyrazine-1,6-dione]
IC95: < 5000 nM

O=C1c2c(O)c(O)c(Br)c(=O)n2CCN1Cc1ccc(F)cc1 [Example 4, 2-(4-Fluorobenzyl)-8,9-dihydroxy-7-bromo-3,4-dihydro-2H-pyrido[1,2-a]pyrazine-1,6-dione]
IC95: < 5000 nM

O=C1c2c(O)c(O)c(I)c(=O)n2CCN1Cc1ccc(F)cc1 [Example 5, 2-(4-Fluorobenzyl)-8,9-dihydroxy-7-iodo-3,4-dihydro-2H-pyrido[1,2-a]pyrazine-1,6-dione]
IC95: < 5000 nM

O=C1c2c(O)c(O)cc(=O)n2CCN1Cc1ccc(Cl)cc1 [Example 7, 2-(4-Chlorobenzyl)-8,9-dihydroxy-3,4-dihydro-2H-pyrido[1,2-a]pyrazine-1,6-dione]
IC95: < 5000 nM

CN(C)Cc1c(O)c(O)c2n(c1=O)CCN(Cc1ccc(F)cc1)C2=O [Example 13, 2-(4-Fluorobenzyl)-8,9-dihydroxy-7-[(dimethylamino)methyl]-3,4-dihydro-2H-pyrido[1,2-a]pyrazine-1,6-dione]
IC95: < 5000 nM

CC1CN(Cc2ccc(F)cc2)C(=O)c2c(O)c(O)cc(=O)n21 (stereo not drawn) [Example 16, 2-(4-Fluorobenzyl)-8,9-dihydroxy-4-methyl-3,4-dihydro-2H-pyrido[1,2-a]pyrazine-1,6-dione]
IC95: < 5000 nM

CC1(C)CN(Cc2ccc(F)cc2)C(=O)c2c(O)c(O)cc(=O)n21 [Example 17, 2-(4-Fluorobenzyl)-8,9-dihydroxy4,4dimethyl-3,4-dihydro-2H-pyrido[1,2-a]pyrazine-1,6-dione]
IC95: < 5000 nM

CC1Cn2c(c(O)c(O)cc2=O)C(=O)N1Cc1ccc(F)cc1 (stereo not drawn) [Example 18, 2-(4-Fluorobenzyl)-8,9-dihydroxy-3-methyl-3,4-dihydro-2H-pyrido[1,2-a]pyrazine-1,6-dione]
IC95: < 5000 nM

O=c1c2c(O)c(O)c(CN3CCCCC3)c(=O)n2ccn1Cc1ccc(F)cc1 [Example 25, 2-(4-Fluorobenzyl)-8,9-dihydroxy-7-(piperidin-1-ylmethyl)-2H-pyrido[1,2-a]pyrazine-1,6-dione]
IC95: < 1000 nM

CN1CCN(Cc2c(O)c(O)c3c(=O)n(Cc4ccc(F)cc4)ccn3c2=O)CC1=O [Example 27, 2-(4-Fluorobenzyl)-8,9-dihydroxy-7-[(4-methyl-3-oxopiperazin-1-yl)methyl]-2H-pyrido[1,2-a]pyrazine-1,6-dione]
IC95: < 1000 nM

O=c1c2c(O)c(O)c(CN3CCOCC3)c(=O)n2ccn1Cc1ccc(F)cc1 [Example 28, 2-(4-Fluorobenzyl)-8,9-dihydroxy-7-[(morpholin4yl)methyl]-2H-pyrido[1,2-a]pyrazine-1,6-dione]
IC95: < 1000 nM

O=c1c2c(O)c(O)c(CN3CCSCC3)c(=O)n2ccn1Cc1ccc(F)cc1 [Example 29, 2-(4-Fluorobenzyl)-8,9-dihydroxy-7-[(thiomorpholin-4-yl)methyl]-2H-pyrido[1,2-a]pyrazine-1,6-dione]
IC95: < 1000 nM

CSc1cc(F)ccc1Cn1ccn2c(=O)cc(O)c(O)c2c1=O [Example 30, 2-[4-Fluoro-2-(methylthio)benzyl)-8,9-dihydroxy-2H-pyrido[1,2-a]pyrazine-1,6-dione]
IC95: < 1000 nM

CC(=O)N1CCCC(Cc2c(O)c(O)c3n(c2=O)CCN(Cc2ccc(F)cc2)C3=O)C1 (stereo not drawn) [Example 34, 7-[(1-Acetylpiperidin-3-yl)methyl]-2-(4-fluorobenzyl)-8,9-dihydroxy-3,4-dihydro-2H-pyrido[1,2-a]pyrazine-1,6-dione]
IC95: < 1000 nM

CC(=O)N1CCCCC1Cc1c(O)c(O)c2n(c1=O)CCN(Cc1ccc(F)cc1)C2=O (stereo not drawn) [Example 35, 7-[(1-Acetylpiperidin-2-yl)methyl]-2-(4-fluorobenzyl)-8,9-dihydroxy-3,4-dihydro-2H-pyrido[1,2-a]pyrazine-1,6-dione]
IC95: < 1000 nM
